{"source": "patent US9456619B1", "about": "“Control of caloric intake” (priority 2000, dated 2016)", "key": {"[1]": {"settings": "rats, liquid diet ad libitum; effect appeared after first week; cited from earlier work"}, "[2]": {"description": "To find out, a few days later I began drinking much more water than usual.\nI was already measuring my weight regularly. I used three scales, to ensure that any weight change was not due to a changing scale."}, "[3]": {"settings": "flavored liquid food, ad libitum; cited from earlier work"}}, "data": [{"compound": "O=C1NS(=O)(=O)c2ccccc21", "note": "[saccharin]", "values": [{"measurement": "weight gain versus same food without saccharin", "setting": "[1]", "result": "gained more weight"}]}, {"compound": "O", "note": "[water]", "values": [{"measurement": "weight rise", "setting": "[2]; after reducing water intake from 5 to 3 liters/day", "result": "about 0.7 kg"}, {"measurement": "weight lost", "setting": "[2]; water intake raised to 5 liters/day, over two weeks before weight stabilized", "result": "about 2.8 kg"}]}, {"compound": "CC(=O)OC[C@H]1O[C@@](COC(C)=O)(O[C@H]2O[C@H](COC(C)=O)[C@@H](OC(C)=O)[C@H](OC(C)=O)[C@H]2OC(C)=O)[C@@H](OC(C)=O)[C@@H]1OC(C)=O", "note": "[sucrose octaacetate]", "values": [{"measurement": "weight gain versus rats eating unflavored solid food", "setting": "[3]", "result": "gained more weight"}]}]}
